Series [1] has as its system L1210 cells. Nature of the series: L1210 growth inhibition, IC50 determination. It is filed as cell-based, murine. The conditions noted are these: Mus musculus. The method, then: Murine L1210 leukemia cells (ATCC CCL 219) were maintained in logarithmic growth in RPMI-1640 medium containing 10% fetal calf serum or a semi-synthetic equivalent, NuSerum, 2% HEPES-MOPS buffer and 1 mM aminoguanidine.

The subject of series [2] is polyamine transport apparatus. Nature of the series: Competitive uptake determination: inhibition of [3H]spermidine transport into L1210 cells. It is filed as cell-based, murine. The conditions noted are these: analogue inhibition of spermidine transport. The essentials:
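Analogues competed with [3H]spermidine for uptake into L1210 cells. Values are Ki, derived from Lineweaver–Burk analysis as competitive inhibition with respect to spermidine.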

The test system of series [3] is L1210 cells. The series is described as follows: Polyamine pool analysis in L1210 cells. It is filed as cell-based, murine. The note with it: Mus musculus, L1210, 48 h, % of untreated control. The method in brief:
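Cells were exposed to each analogue for 48 h at two concentrations. Washed pellets were extracted with 0.6 N HClO4 (1 ml/10^7 cells), and polyamines were quantified by HPLC of dansyl derivatives.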

Series [4] deals with ornithine decarboxylase (ODC). Nature of the series: ODC activity in treated L1210 cells. The conditions noted are these: L1210, 1 μM at 4 hours. The series is classed as cell-based, murine. The essentials: (§1)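 L1210 cells treated with triamines; ODC activity measured at 4 h and AdoMetDC at 6 h as ^14CO2 released from [^14C]-carboxyl-labeled L-ornithine (ODC) or S-adenosyl-L-methionine (AdoMetDC). Untreated cells served as controls and DEHSPM-treated cells as positive controls.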

For series [5], the system named is S-adenosylmethionine decarboxylase (AdoMetDC). The series is described as follows: AdoMetDC activity in treated L1210 cells. It is filed as cell-based, murine. The note with it: L1210, 1 μM at 6 hours. The essentials: as §1
Series [6] has as its system spermidine/spermine acetyltransferase (SSAT). The series is described as follows: SSAT activity in treated L1210 cells. The series is classed as cell-based, murine. The note with it: L1210, 10 μM at 48 hours (triamine analogues). An excerpt:
Spermidine/spermine N^1-acetyltransferase activity was based on quantitation of [^14C]-N^1-acetylspermidine formed by acetylation of SPD with [^14C] acetyl coenzyme A according to the method of Libby et al [Biochem. Pharmacol., Vol. 38, supra]. Cells treated with DENSPM were positive controls.

Series [7] relates to laboratory animals. The conditions noted are these: early studies in laboratory animals; cited from earlier work.

Here are results for one compound from patent US20020045780A1, “Biologically active spermidine analogues, pharmaceutical compositions and methods of treatment” (priority 1997, published 2002).

Like-named read-outs stand apart in the source and are kept apart here.

The IC50 is the concentration needed to halve the response being measured. Broadly, the Ki is the dissociation constant of the complex between target and ligand, obtained from inhibition or displacement. Read a low Ki as a stronger hold on the target.

`NCCCCNCCCN` [SPD, spermidine]: the IC50 in series [1] (L1210, 48 h, L1210, 48 hour exposure, read-out: IC50 48 hour) is above 100 µM; in series [1] (L1210, 96 h, L1210, 96 hour exposure, read-out: IC50 96 hour) it was above 100 µM. Also, in series [2], the affinity corresponds to a Ki of 2.2 µM. For the same compound, the activity at 100 µM was determined as 0% in series [3] (read-out: Put), 117% in series [3] (read-out: Spd) and 118% in series [3] (read-out: Spm). Further, the activity at 500 µM in series [3] (read-out: Put) worked out at 0%; in series [3] (read-out: Spd), 145%; in series [3] (read-out: Spm) it was 108%. Besides, the “ODC activity, percent of untreated control” value in series [4] is 16% of untreated control. Moreover, the “AdoMetDC activity, percent of untreated control” value in series [5] is recorded as 43% of untreated control. In series [6], the “SSAT activity, percent of untreated control” value is on record as 160% of untreated control. In addition, the “Nephrotoxicity relative to spermine” value in series [7] was “approximately one-twentieth as nephrotoxic as spermine”.
